≈ marks a conversion by molar mass, not a printed value.

In assay [1] the target is avidin (Gallus gallus, UniProt P02701). The following applies: association constant from literature (Hermanson); cited from earlier work.
Assay [2] relates to anti-3-Nitrotyrosine antibody. In words: Lateral flow assay for NHPA in synthetic urine. The format is binding. The protocol:
The LFA was assembled using a nitrocellulose membrane attached to a plastic backing card (Figure 13). An anti-3-Nitrotyrosine antibody line was printed at 1mg/mL concentration, the line consisted of 20 lines, each with 25 µm width, using 0.1 µL antibody solution/cm/line. A streptavidin line was printed at 1mg/mL concentration and consisted of 10 lines, each with 50 µm width, using 0.1 µL streptavidin solution/cm/line. The membrane was sealed in a foil bag with desiccant silica gel sachets and stored in the fridge until used.
On the test day the wicking pad (5 x 17 mm) was attached to the membrane (2 mm overlap) and the plastic card was cut into strips (5 mm width). Glass fibre conjugate pads (5 x 7 mm) were soaked in AuNP-BSA-biotin-NHPA conjugate (0.5 OD) and dried in a desiccator for 2 hours. The conjugate pad was then attached to the membrane (2mm overlap). […]
Different concentrations of NHPA in synthetic urine (200 µL) were prepared in respective wells of a low-binding 96-well microplate. […] The images of the test strips (Figure 14) were analysed by ImageJ software. […] The grey level of the pixels in each test line was measured and subtracted from the background to calculate each line intensity and its dependence on the NHPA concentration (Figure 15b).

The test system of assay [3] is anti-caffeine antibody.
Method: (§1) A 96-well ELISA plate was coated with anti-caffeine antibody (50 µL, 6 µg/mL, in PBS buffer, pH 7.4) by incubating the plate for 1 hour at RT. The plate was blocked with 2% (w/v) BSA in PBS with 0.05% (v/v) Tween-20, pH 7.4, for 2 hours at RT. BSA-biotin-caffeine conjugate (50 µL) at different concentrations were added to the plate and incubated for 1 hour at RT. HRP-labelled avidin (50 µL, 1:5000 dilution in blocking buffer) was added and the plate was incubated for 1 hour in the dark at RT. After thorough washing of the plate, the colour was developed by adding 3,3',5,5'-tetramethylbenzidine (TMB) liquid substrate system (50 µL). The reaction was stopped by the addition of 1 M H2SO4 (50 µL) and the absorbance at 450 nm was recorded.
(§2) Same general protocol as direct ELISA. Plate was coated with anti-caffeine antibody (50 µL, 6 µg/mL, in PBS buffer, pH 7.4) and blocked with 2% (w/v) BSA in PBS with 0.05% (v/v) Tween-20, pH 7.4. BSA-biotin-caffeine conjugate (25 µL, 40 mg/mL) was mixed with caffeine (25 µL) at different concentrations of the latter, added to the plate and incubated for 1 hour at RT. HRP-labelled avidin (50 µL, 1:5000 dilution) was added and the colour was developed by adding TMB liquid substrate system (50 µL). The reaction was stopped by the addition of 1 M H2SO4 (50 µL) and the absorbance at 450 nm was recorded.
(§3) The same ELISA format was used to test the competition of the BSA-biotin-caffeine conjugate and free caffeine for binding to the anti-caffeine antibody coated on the wells. A fixed amount of BSA-biotin-caffeine conjugate (20 µg/mL) was used and the concentration of free caffeine was varied.
The subject of assay [4] is anti-caffeine antibody. Put plainly: Competitive ELISA (free caffeine vs caffeine conjugate). For orientation: In an ELISA, binding on a coated surface is turned into a signal by an enzyme label.
Method: as §1, §2, §3
For assay [5], the system named is anti-caffeine antibody. In words: Modified competitive lateral flow assay for caffeine with two test lines. In kind it is binding, mouse. On the procedure:
The LFA was assembled using a nitrocellulose membrane attached to a plastic backing card. Anti-caffeine antibody and avidin were immobilised at test lines 1 and 2, respectively, in the detection zone. […] The membrane was dried at RT for 2 hours. The wick was attached to the membrane (2 mm overlap) and the plastic card was cut into strips (5 mm x 60 mm). Glass fibre conjugate pads were soaked in 30% (w/v) sucrose in Milli-Q water and dried in an oven at 37°C. […] The conjugate pad was attached to the membrane and the prepared strips were kept in a desiccator until use.
Different concentrations of caffeine in 2% (w/v) BSA were prepared in respective wells of a low-binding 96-well microplate. The test strips were placed into each well vertically for 3 min, after which they were removed and left to dry. Images of the test strips were taken and analysed by ImageJ software. The grey level of the pixels in each test line was measured and subtracted from the background.
The effects of applying different concentrations of caffeine to the LFA were investigated to determine the working range and sensitivity that can be achieved for caffeine detection. The LFA test strips were prepared according to the design of the assay shown in Figure 3 and run using different concentrations of caffeine ranging from 1 ng/mL to 100 µg/mL. The optimised running buffer included glycerol as an agent to regulate wicking rate, and BSA and Tween-20 as blocking agents to reduce non-specific binding.
As well as visual inspection, the signal intensity of the test lines was analysed using ImageJ software. The signal intensities of test lines 1 and 2 at different caffeine concentrations were plotted in a semi-log graph as shown in Figure 11 (results were measured in triplicates). […] Table 1 - Semi-quantitative analysis of caffeine concentration based on the ratio between the signal intensities of test lines 1 and 2.

[6] abbreviates: strips kept in a desiccator for seven days at room temperature.

Sequence of avidin (P02701 25-152, species assumed): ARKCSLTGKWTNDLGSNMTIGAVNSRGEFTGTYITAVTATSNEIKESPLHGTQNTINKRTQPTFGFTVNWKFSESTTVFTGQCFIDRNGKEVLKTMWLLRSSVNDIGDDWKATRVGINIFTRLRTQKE

As for `O=C(O)c1ccccc1N=Nc1ccc(O)cc1` [HABA, 4'-hydroxyazobenzene-2-carboxylic acid], in assay [1], the “binding affinity for avidin” value is 6e+06 M⁻¹.

As to `O=C(O)Cc1ccc(O)c([N+](=O)[O-])c1` [NHPA, 3-nitro-4-hydroxyphenylacetic acid], the “decrease of the antibody line's intensity” value in assay [2] (250 ng/ml of NHPA in urine samples (synthetic urine)) is “over 90%”. In addition, in assay [2] (synthetic urine, also printed as 250 ± 80 ng/ml), the “threshold of the assay for NHPA detection in urine” value is 170 to 330 ng/mL.

Regarding `O=C(O)CCCC[C@@H]1SC[C@@H]2NC(=O)N[C@@H]21` [biotin], the “binding affinity for avidin” value in assay [1] is 1.3e+15 M⁻¹.

For the compound `Cn1c(=O)c2c(ncn2C)n(C)c1=O` [caffeine], in assay [3], the IC50 turned out to be 7 ng/mL (≈ 0.036 µM). In assay [4] (BSA-biotin-caffeine conjugate (20 µg/mL) as competitor), the “detection limit, determined by the concentration of caffeine that results in 10% inhibition” value amounted to 0.03 ng/mL. Further, in assay [4] (fixed BSA-biotin-caffeine conjugate (20 µg/mL), free caffeine varied, absorbance at 450 nm, dose response fit), the IC50 value stood at 1 ng/mL (≈ 0.00515 µM). Further, the “IC50 value of test line 1” value is 5 ng/mL in assay [5] (anti-caffeine antibody line, signal intensity by ImageJ, triplicates, fresh strips) and 3 ng/mL in assay [5] (setting [6]). The “IC50 value of test line 2” value is 8 ng/mL in assay [5] (avidin line, signal intensity by ImageJ, triplicates, fresh strips) and 11 ng/mL in assay [5] (setting [6]). Further, the visual detection limit in assay [5] (test line 1 only (no colour developed), no calibration) was found to be 10000 ng/mL; in assay [5] (test line 2, strips stored seven days at room temperature), 10 ng/mL; in assay [5] (with the second test line (test line 2), fresh strips) it was 10 ng/mL.

As a reminder, the IC50 is the point on the concentration scale where inhibition reaches its midpoint. A high value points to a need for much substance.

The record behind these values is EP4455667B1, “DEVICE FOR DETECTING MOLECULES” (Viscera Technologies Ltd, priority 2023, dated 2024).
